# Values of other authors as cited in patent US7220434B2, “Dual-release compositions of a cyclooxygenase-2 inhibitor” (Pharmacia Corporation (of Pfizer, Inc.), priority 2000, dated 2007).
# Tests used:
# [1] = conventionally formulated for oral delivery
Compound,solubility in water,solubility in aqueous media (aqueous media),half-life [1]
"Cc1ccc(-c2cc(C(F)(F)F)nn2-c2ccc(S(N)(=O)=O)cc2)cc1 [celecoxib, 4-[5-(4-methylphenyl)-3-(trifluoromethyl)-1H-pyrazol-1-yl]benzenesulfonamide]",low solubility in water,unusually insoluble,
COc1ccc(-c2cc(C(F)F)nn2-c2ccc(S(N)(=O)=O)cc2)cc1F [deracoxib],low solubility in water,,
"Cc1onc(-c2ccccc2)c1-c1ccc(S(N)(=O)=O)cc1 [valdecoxib, 4-[5-methyl-3-phenylisoxazol-4-yl]benzenesulfonamide]",low solubility in water,,
"CS(=O)(=O)c1ccc(C2=C(c3ccccc3)C(=O)OC2)cc1 [rofecoxib, 3-phenyl-4-[4-(methylsulfonyl)phenyl]-5H-furan-2-one]",low solubility in water,,sufficient to provide therapeutic benefit over a 24-hour period
